Source: patent US9387257B2, “Lung cancer specific peptides for targeted drug delivery and molecular imaging” (Academia Sinica, priority 2014, dated 2016)
Where no end group is shown, it is not given here.

How the values were obtained:
[1] = Pharmacokinetic and biodistribution study in mice bearing H460 xenografts; assay type: in vivo, SCID mice; settings: single i.v. dose 2 mg/kg
Procedure: SCID mice bearing H460 lung cancer xenografts (˜300 mm^3) were injected in the tail vein with either free drug doxorubicin (FD), liposomal doxorubicin (LD), or targeting (HSP1, HSP2 or HSP4) LD at a single dose of 2 mg/kg. At 1 hr and 24 hr post-injection, blood samples were collected through submaxillary punctures before mice were anaesthetized and sacrificed (three mice in each group). Then the mice were perfused with 50 ml PBS through heart, xenograft tumors and organs (brain, lung, heart, liver, and kidney) were dissected, weighted, and homogenized to calculate amount of doxorubicin in tissues. Total doxorubicin was quantified by measuring fluorescence at λEx/Em=485/590 nm using a spectrofluorometer (SPECTRAMAX® M5, Molecular Devices).

H1993 cells = experiment: Uptake of targeting peptide-conjugated LSRB; assay type: cell-based, human; settings: peptide-conjugated liposomal SRB, time course, 37° C.
Procedure: (§1) H460 and H1993 cells were grown on a 24-well plate to 90% confluency, and 20, 10, 5, 2.5, 1.25, 0.625 μM HSP1, 2, 4-liposomal sulforhodamine B (LSRB) or LSRB in complete culture medium was added. The cells were incubated at 37° C., at the following time periods: 10, 30 min, 1, 2, 4, 8, 16 and 24 hours. At the indicated time point, cells were washed with PBS, and non-internalized LSRB on the cell surface was removed by adding 0.1 M Glycine, pH 2.8 for 10 min. Cells were then lysed with 200 μl 1% Triton X-100. Uptake of LD at low concentration in H1993 cells was performed using same protocol. For extraction of SRB or doxorubicin, 300 μl IPA (0.75 N HCl in isopropanol) was added to the lysate and shaken for 30 min. After the lysate was centrifuged at 12,000 rpm for 5 min, the amount of uptakes were determined by measuring Excitation/Emission wavelengths of fluorescence at 520/570 nm for SRB and 485/590 nm for doxorubicin using, a spectrofluorometer (SPECTRAMAX® M5, Molecular Devices). The concentration of SRB and doxambicin were calculated by interpolation using a standard curve.

H460 cells [2] = experiment: Uptake of targeting peptide-conjugated LSRB; assay type: cell-based, human; settings: for uptake of LSRB: peptide-conjugated LSRB at high concentration / higher doses; for liposome internalization compared to non-targeting LSRB: peptide-conjugated liposomal SRB, time course, 37° C.
Procedure: as §1

H460 cells [3] = experiment: Endocytosis assay (confocal microscopy); assay type: cell-based, human; settings: peptide-conjugated LSRB; 4° C. vs 37° C.
Procedure: H460 cells were incubated with HSP1, HSP2, HSP4-LSRB or LSRB for 10 min at 4° C. and 37° C. After being washed with PBS, the cells were fixed by 4% paraformaldehyde, blocked by 1% BSA, and then stained with WGA-ALEXA FLUOR® […] and DAPI for cell membrane and nucleus. All fluorescence images were obtained by confocal microscopy.

[4] = system: H460 human lung large cell carcinoma xenografts; experiment: Ligand-targeted therapy, lung large cell carcinoma xenograft model; assay type: in vivo, SCID mice; settings: large tumor ~500 mm^3; 2 mg/kg/injection i.v. twice a week
Procedure: Female SCID mice 4-6 weeks of age were injected subcutaneously in the dorsolateral flank with human NSCLC cells. Mice with size-matched tumors (approximately 75 mm^3 for small tumor; 300 or 500 mm^3 for large tumor) were then randomly assigned to different treatment groups, and were injected intravenously with liposomal doxorubicin (LD), liposomal vinorelbine (LV), targeting peptide (HSP1, HSP2 or HSP4)-conjugated LD or LV, free doxorubicin (FD), free vinorelbine (FV) or equivalent volumes of saline. The dosages of drugs and administration time courses were described in figure legends depend on different experiment design. Mouse body weights and tumor sizes were measured twice a week. Tumor volumes were calculated according to this formula: length×(width)^2×0.52. Animal care was carried out in accordance with guidelines of Academia Sinica, Taipei, Taiwan. The protocol was approved by the Committee on the Ethics of Animal Experiments of Academia Sinica.

[5] = system: human normal bronchial epithelial cell (NL20); experiment: Flow cytometry surface binding of FITC-conjugated peptides to normal cells; assay type: cell-based; settings: 20 μg/mL FITC-conjugated peptide, 4° C., 1 hour
Procedure: (§2) The lung cancer cell lines or control cells were collected using enzyme-free cell dissociation buffer, and then were incubated with 20 μg/mL FITC-conjugated HSP1, 2, 4 or control peptide at 4° C. for 1 hour. After washing, cells were analyzed by flow cytometer.

H460 cells [6] = experiment: In vitro cytotoxicity assay of targeting peptide-conjugated LD (MTT); assay type: cell-based, human; settings: for decrease of the half maximal inhibitory concentration (IC50) compared to LD: peptide-conjugated LD at optimal peptide ratio, H460 cells; for reduction in IC50 in vitro: peptide-mediated DDS, summary statement
Procedure: H460 cells were seeded in 96-well plates (5000 cells/well) in complete culture media and were incubated overnight. Next day, cells were treated with varying concentration (0˜100 μM) of HSP1-LD, HSP2-LD, HSP4-LD or LD at 37° C. for 24 hours; After removal of the excess drug, the cells were washed once with PBS and continued to incubate with fresh culture medium for 48 h at 37° C. The cell viability was measured by adding 50 μl of MTT (Thiazolyl Blue Tetrazolium Bromide; Sigma-Aldrich) to each well of the plate. After 3.5 hours MTT incubation, 150 μl of Dimethyl sulfoxide (DMSO; Mallinckrodt Baker) was added to each well for 10 min, and the absorbance was determined with microplate reader (SPECTRAMAX® M5, Molecular Devices) at 540 nm.

[7] = system: H1993 adenocarcinoma cells; experiment: Immunofluorescence staining (IFA) of FITC-labeled peptides; assay type: cell-based, human; settings: 10 μg/mL FITC-labeled peptide, fixed H1993 cells
Procedure: (§3) H460 and H1993 cells were seeded and grown to about 50% confluence on cover slips. After the cells had been fixed with 2% paraformaldehyde, they were incubated with 10 μg/mL FITC-labeled HSP1, 2, 4 or control peptides. Then the slides were counterstained with 4′,6-diamidino-2-phenylindole (DAPI), mounted and examined under a Leica universal fluorescent microscope. The images were merged using the MetaMorph Image Analysis Software.

[8] = system: H460 large cell carcinoma cells; experiment: as above; assay type: cell-based, human; settings: 10 μg/mL FITC-labeled peptide, fixed H460 cells
Procedure: as §3

[9] = system: human lung cancer cell lines (H460, H661, H1993, H441, CL1-5, A549, H520, H1688); experiment: Flow cytometry surface binding of FITC-conjugated peptides to lung cancer cell lines; assay type: cell-based; settings: 20 μg/mL FITC-conjugated peptide, 4° C., 1 hour; large cell, adeno-, squamous cell and small cell carcinoma lines
Procedure: as §2

[10] = system: A549 adenocarcinoma orthotopic model; experiment: Combination therapy in orthotopic lung cancer model; assay type: in vivo, SCID mice; settings: HSP4-mediated combinatorial liposomes
Procedure: SCID mice (6-week-old) were anesthetized with isofloruance mixed with oxygen and placed in the right decubitus position. The skin overlying the left chest wall in the mid-axillary line was prepared with alcohol, and the underlying, chest wall and intercostal spaces were visualized. […] After tumor injection, the mice were turned to left decubitus position and observed for 45 to 60 min until fully recovered.
Luciferase-expressing cancer cells were imaged and quantified using IVIS200 system (Xenogen Corporation, Alameda, Calif.) at 10 minutes after i.p. injection of LUCWERIN™ (Caliper Life Sciences) before drug administration each time.

Compound | half-life in plasma compared to liposomal formulations [1] | liposome internalization compared to non-targeting LSRB (H1993 cells) | uptake of LSRB (H460 cells [2]) | liposome internalization compared to non-targeting LSRB (H460 cells [2]) | binding versus internalization compared to HSP2 and HSP4 (H460 cells [3]) | therapeutic efficacy of LD [4] | surface binding of FITC-labeled peptide (FACS) [5] | decrease of the half maximal inhibitory concentration (IC50) compared to LD (H460 cells [6]) [fold] | reduction in IC50 in vitro (H460 cells [6]) | binding of FITC-labeled peptide in cell IFA [7] | binding of FITC-labeled peptide in cell IFA [8] | surface binding of FITC-labeled peptide (FACS) [9] | adverse effect (body weight loss) [10] | intracellular delivery of LSRB (H460 cells [2]; peptide-conjugated LSRB at low LSRB concentrations)
COc1cccc2c1C(=O)c1c(O)c3c(c(O)c1C2=O)C[C@@](O)(C(=O)CO)C[C@@H]3O[C@H]1C[C@H](N)[C@H](O)[C@H](C)O1 [FD, doxorubicin] | much shorter half-life in plasma |  |  |  |  |  |  |  |  |  |  |  |  | 
GAMHLPWHMGTL (also: FITC label) [HSP1] |  | enhanced liposome internalization | better uptake ability | enhanced liposome internalization | stronger ability at binding than internalization | significantly improved therapeutic efficacy | not to human normal bronchial epithelial cell | 12.5 | about 10 fold | can bind to a major group | can bind to a major group | prominent binding |  | 
KATEEQLKTVME (control peptide) [reference compound] |  |  |  |  |  |  |  |  |  | cannot | cannot |  |  | 
NNPWREMMYIEI [HSP4, NNPWREMMYIEI] |  |  |  |  |  |  |  |  |  |  |  |  | decreasing body weight loss | 
NPWEEQGYRYSM (also: FITC label) [HSP2] |  | enhanced liposome internalization | no difference from non-targeting LSRB | enhanced liposome internalization |  | significantly improved therapeutic efficacy | not to human normal bronchial epithelial cell | 13 | about 10 fold | can bind to a major group | can bind to a major group | prominent binding |  | prominent intracellular delivery
